Biological target: hERG potassium channel (Homo sapiens, UniProt Q12809)
Test: hERG channel inhibition test
Type: cell-based

hERG potassium channel, sequence (Q12809 whole entry): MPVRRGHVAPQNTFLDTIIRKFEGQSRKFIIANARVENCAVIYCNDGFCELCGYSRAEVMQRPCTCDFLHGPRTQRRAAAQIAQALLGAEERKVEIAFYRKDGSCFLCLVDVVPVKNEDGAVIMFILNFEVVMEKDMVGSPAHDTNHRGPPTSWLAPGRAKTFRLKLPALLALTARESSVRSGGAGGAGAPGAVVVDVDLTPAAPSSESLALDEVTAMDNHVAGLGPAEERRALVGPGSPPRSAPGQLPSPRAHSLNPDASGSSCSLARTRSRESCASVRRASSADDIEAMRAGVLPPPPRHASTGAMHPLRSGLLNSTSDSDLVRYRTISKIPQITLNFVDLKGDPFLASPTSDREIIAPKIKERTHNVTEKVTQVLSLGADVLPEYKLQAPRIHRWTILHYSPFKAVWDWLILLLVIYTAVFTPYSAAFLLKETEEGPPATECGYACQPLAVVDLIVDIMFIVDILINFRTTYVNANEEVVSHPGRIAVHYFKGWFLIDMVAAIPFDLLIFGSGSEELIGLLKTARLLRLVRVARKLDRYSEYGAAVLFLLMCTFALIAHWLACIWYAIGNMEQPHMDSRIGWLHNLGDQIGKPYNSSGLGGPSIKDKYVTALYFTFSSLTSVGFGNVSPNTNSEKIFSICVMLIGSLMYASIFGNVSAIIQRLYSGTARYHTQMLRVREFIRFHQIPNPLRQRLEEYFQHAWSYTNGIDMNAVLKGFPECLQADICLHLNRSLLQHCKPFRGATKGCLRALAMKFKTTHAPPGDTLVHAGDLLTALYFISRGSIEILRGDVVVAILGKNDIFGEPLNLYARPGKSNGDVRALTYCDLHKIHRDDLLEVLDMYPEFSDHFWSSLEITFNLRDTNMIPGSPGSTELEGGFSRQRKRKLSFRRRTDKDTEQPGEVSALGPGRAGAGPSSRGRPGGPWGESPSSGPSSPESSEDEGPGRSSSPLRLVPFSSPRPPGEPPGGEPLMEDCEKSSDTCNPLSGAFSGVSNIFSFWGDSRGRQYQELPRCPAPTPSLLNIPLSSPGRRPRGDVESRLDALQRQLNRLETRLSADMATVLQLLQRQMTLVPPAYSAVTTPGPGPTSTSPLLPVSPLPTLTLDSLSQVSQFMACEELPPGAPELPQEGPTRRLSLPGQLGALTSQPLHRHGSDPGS

## CC(C)[C@H]1OC(=O)[C@H](Cc2ccccc2)N(C)C(=O)[C@@H](C(C)C)OC(=O)[C@H](Cc2ccccc2)N(C)C(=O)[C@@H](C(C)C)OC(=O)[C@H](Cc2ccccc2)N(C)C1=O [BEA, beauvericin]
  IC50: ~2550 nM

Reference: publication PMC5640798 (Synthetic and Systems Biotechnology, 2016)
